From patent US12257325B2, “Chelating platform for delivery of radionuclides” (priority 2016, dated 2025)

Key:
[1] = cited from earlier work
[2] = target: T1, recombinant wild-type Scn (Homo sapiens, UniProt P80188); assay: Fluorescence Quenching Binding Assay
T1 construct: made in house
Protocol: Metal, Chelator, and Protein Working Solutions. The trivalent lanthanide Ln(III) working stock solutions were prepared in standardized 0.1 M HCl. A Zr(IV) stock solution was prepared by dissolving ZrCl4 in 3.0 M H2SO4, to prevent hydrolysis. The metal salt ZrCl4 was handled and stored in a glovebox kept under inert atmosphere. The Zr(IV) stock solution was standardized against EDTA, with xylene orange as the indicator (Welcher, F. J. The analytical uses of ethylenediamine tetraacetic acid; 1958). A Th(IV) stock solution was prepared in 0.1 M H2SO4. […]
Fluorescence Quenching Binding Assay. […] Fluorescence quenching of Scn was measured after each titrant addition on a HORIBA Jobin Yvon IBH FluoroLog-3 spectrofluorimeter, with 3 nm slit band-pass, using the characteristic excitation and emission wavelengths λexc=280 and λem=320-360 nm. The intrinsic fluorescence in proteins is generally attributed to tryptophan residues; two residues W31 and W79 are found in the proximity of the Scn binding site. Fluorescence values were corrected for dilution upon addition of titrant. Fluorescence data were analyzed by nonlinear regression analysis of fluorescence response versus chelator concentration using a one-site binding model as described elsewhere. […]

[3] = Incremental spectrophotometric titrations: stability constants of Th(IV) complexes (DTPA competition); type: physicochemical; settings: 1 equivalent of Th(IV); calculated speciation diagram
Protocol: (§1) Solution Thermodynamics. All titrant solutions were degassed by boiling for 1 h while being purged under Ar. Carbonate-free 0.1 M KOH was prepared from concentrate (J.T Baker Dilut-It) and was standardized by titrating against 0.1 M potassium hydrogen phthalate (99.95%, Sigma Aldrich). Solutions of 0.1 M HCl were similarly prepared and were standardized by titrating against TRIS (99.9%, J.T. Baker). The glass electrode (Metrohm-Micro Combi-response to [H+]) used for the pH measurements was calibrated at 25.0° C. and at an ionic strength of 0.1 M (KCl) before each potentiometric or spectrophotometric titration. The calibration data were analyzed using the program GLEE (Gans & O'Sullivan, Talanta, 2000, 51 (1): 33-37) to refine for the E° and slope. […]
(§2) Incremental Spectrophotometric Titrations. […] For the 3,4,3-LI(CAM) protonation (and Eu(III)-3,4,3-LI(CAM) complexes), titrations were performed with an initial concentration of 50 μM of 3,4,3-LI(CAM) (and 50 μM of Eu(III)) resulting in absorbance values included between 0 and 1.0 throughout the titration. […]
(§3) Data Treatment. […] All metal and chelator concentrations were held at estimated values determined from the volume of standardized stock solutions. All species formed with 3,4,3-LI(CAM) were considered to have significant absorbance to be observed in the UV-vis spectra and were therefore included in the refinement process. […]

[4] = Incremental spectrophotometric titrations: protonation constants of 3,4,3-LI(CAM); type: physicochemical; settings: I=0.1 M (KCl), T=25° C.; lower values = higher acidity
Protocol: as §1, §2, §3

[5] = Incremental spectrophotometric titrations: stability constants of Eu(III) complexes; type: physicochemical; settings: 1 equivalent of Eu(III); calculated speciation diagram
Protocol: as §1, §2, §3

[6] = Incremental spectrophotometric titrations: stability constants of Zr(IV) complexes (DTPA competition); type: physicochemical; settings: 1 equivalent of Zr(IV); calculated speciation diagram
Protocol: as §1, §2, §3

[7] = In Vivo Biodistribution Assay with ^238Pu tracer; set-up: species or system CD-1 mice; settings: mice, intravenous
Protocol: In Vivo Biodistribution Assay. All procedures and protocols used in the presented in vivo studies were reviewed and approved by the Institutional Animal Care and Use Committee at Lawrence Berkeley National Laboratory and performed in AAALAC accredited facilities. The animals used were adult female CD-1 mice (180±7 days old, 40.8±5.8 g). Solutions of ^238Pu complexed by 3,4,3-LI(CAM) and Scn:3,4,3-LI(CAM) were prepared in situ at molar ratios protein:ligand:^238Pu of 0:100:1 and 100:100:1, respectively by mixing and incubating the appropriate quantities of ^238Pu(NO3)4, ligand, and protein in phosphate-buffered saline (PBS) to reach a ^238Pu concentration of 12 ng L-1. Protein solutions were washed thrice with PBS using 10 kDa molecular weight cut-off membrane-based centrifugal filters, and all solutions were filter-sterilized (0.22 μm) prior to injection. Under isoflurane anesthesia, groups of three normally fed mice were injected intravenously with 0.2 mL of a complex solution (370 Bq per mouse). After injection of the ^238Pu tracer, mice were weighed, identified, and housed in groups of three in plastic stock cages lined with a 0.5 cm layer of highly absorbent low-ash pelleted cellulose bedding (Alpha-dri) for separation of urine and feces. Mice were given water and food ad libitum and euthanized at 4, 24, or 48 h after tracer injection. All experiments using ^238Pu tracers were managed as metabolic balance studies, in which tissues and excreta were analyzed for ^238Pu by liquid scintillation counting on a Perkin Elmer Packard Tri-Carb model B4430. The methods of sample collection, preparation, radioactivity measurements, and data reduction have been published previously (Sturzbecher-Hoehne, et al., Dalton Transactions, 2011, 40 (33): 8340-8346: Kullgren, et al., Toxicology mechanisms and methods, 2013, 23 (1), 18-26; Durbin, et al., Health physics 2000, 78 (5): 511-521). Those methods provide quantitative measurements of radioactivity in biological samples; material recoveries averaged 99% of the amount injected in these experiments.
Biodistribution Evaluation. To evaluate the in vivo retention and excretion patterns of M(IV)-3,4,3-LI(CAM) complexes and their Scn adducts, ^238Pu(IV) was used as a radiolabel. ^238Pu(IV) likely behaves similarly to Th(IV) and Zr(IV) (the ionic radius of Pu^4+ is included between those of Th^4+ and Zr^4+) (Sturzbecher-Hoehne, et al., Inorganic Chemistry, 2015, 54 (7): 3462-3468) but allows for more accurate metabolic balance experiments due to its relatively long radioactive half-life (87.8 yr) and low specific activity (0.63 TBq/g), compared to the therapeutic ^227Th (18.68 d; 1139 TBq/g) and imaging ^89Zr (78.42 h; 16,630 TBq/g) isotopes. […] In this in vivo stability experiment, ^238Pu-ligand complex solutions were formed in situ (Ligand:Pu and Scn:Chelator:Pu ratios of 100:1 and 100:100:1, respectively) and administered intravenously. Mice were euthanized 4, 24, or 48 h after the metal injection, and tissues and excreta were radioanalyzed for ^238Pu content (FIG. 14).

For `O=C(NCCCN(CCCCN(CCCNC(=O)c1cccc(=O)n1O)C(=O)c1cccc(=O)n1O)C(=O)c1cccc(=O)n1O)c1cccc(=O)n1O` [3,4,3-LI(1,2-HOPO)], the “pH at which 4+ metal complexes are formed” value ([1]; 4+ metals, very acidic conditions) is given as under 0 and the “pH at which Eu(III) species appear” value ([1]; Eu(III), same conditions) is given as 1.

With `O=C(NCCCN(CCCCN(CCCNC(=O)c1cccc(O)c1O)C(=O)c1cccc(O)c1O)C(=O)c1cccc(O)c1O)c1cccc(O)c1O` [3,4,3-LI(CAM)] the Kd [2] was 1.2 ± 0.4 nM, the “pH at which complexes start forming” value [3] was about 3 and the “overall acidity ΣpKa5-8” value [4] was 45.4. The “pH at which complexation starts” value [5] was 5 and the “pH at which complexes start forming” value [6] was about 3.

B1: Scn:[Pu^IV(3,43-LI(CAM))]: siderocalin adduct of the ^238Pu(IV) complex of 3,4,3-LI(CAM), Scn:chelator:Pu 100:100:1 (conjugate, UniProt P80188 21-198, looked up)
Neutrophil …: QDSTSDLIPAPPLSKVPLQQNFQDNQFQGKWYVVGLAGNAILREDKDPQKMYATIYELKEDKSYNVTSVLFRKKKCDYWIRTFVPGCQPGEFTLGNIKSYPGLTSYLVRVVSTNYNQHAMVFFKKVSQNREYFKITLYGRTKELTSELKENFIRFSKSLGLPENHIVFPVPIDQCIDG
modifications: bound Pu(IV)-3,4,3-LI(CAM) complex
With B1 the in vivo stability [7] was “high in vivo stability”, the “injected ^238Pu excreted by 48 hours” value ([7]; 370 Bq per mouse, 48 h) was 30% and the “^238Pu found in the kidneys” value ([7]; 4 h after administration) was “up to 52%”. The “^238Pu in urine versus feces” value ([7]; all time points (4, 24, 48 h)) was “more ^238Pu was found in the urine than in the feces” and the “retention and excretion pattern (kidney vs. liver)” value ([7]; early time points) was “favors elimination through the renal system”.
